# Laboratory results published in US9107909B2, “Materials and methods to enhance hematopoietic stem cells engraftment procedures” (priority 2008, dated 2015).
# What was measured:
# UCB CD34+ cells = experiment: Migration of human UCB CD34+ cells to rhSDF-1; type: cell-based; settings: pulse exposure
# Protocol: Freshly isolated UCB CD34^+ cells were pulsed with dmPGE2 or vehicle for 2 hours, washed and resuspended in media with 10% HI-FCS and cultured at 37° C. for 16 hours. After incubation, cells were washed, resuspended in RPMI/0.5% BSA and migration to rhSDF-1 measured by flow cytometry. To block the CXCR4 receptor, replicate cells were incubated with 5 micrograms/ml AMD3100 for 30 minutes prior to the migration assay. Referring now to FIG. 10, the data are the Mean±SEM percentage migration for 3 experiments.
# homed SKL cells = experiment: In vivo cell cycle analysis (BrdU) of homed SKL cells; design: species or system mouse; settings: BrdU treated recipient mice, 16 hours, vs vehicle pulsed cells
# Protocol: For in vitro cell cycle analysis, Lin^neg cells were treated with either 1 microMolar dmPGE2 or vehicle for 2 hours, washed, and cultured in Stem Cell Pro Media (Stem Cell Technologies) with rmSCF (50 ng/ml) (R&D Systems, Minneapolis, Minn.), rhFlt-3 and rhTPO (100 ng/ml each) (Immunex, Seattle, Wash.). After 20 hours, cells were stained for SKL, fixed and permeabilized, and stained with 7AAD (BD Biosciences, San Jose, Calif.). The proportion of SKL cells in S+G2/M phase was determined by measuring DNA content by FACS. […] The proportion of homed (CD45.1^+) SKL cells that were BrdU^+ was determined by FACS in individual mice.
# To confirm the effect of dmPGE2 on enhancement of HSPC cell cycle observed in vitro, marrow cells were pulsed with dmPGE2 and injected into congenic mice treated with BrdU post-transplant, and the proportion of donor BrdU^+ SKL cells was determined 16 hours later.
# CD45.1 Lineage^neg bone marrow cells were treated with dmPGE2 or vehicle and transplanted into lethally irradiated CD45.2 mice. […] Bone marrow was analyzed 16 hours later and the proportion of CD45.1^+, SKL cells that were BrdU^+ was analyzed by FACS analysis. […] Bone marrow was analyzed 16 hours later and the proportion of CD45.1^+, SKL cells that were BrdU^+ was analyzed by FACS analysis. […]
# SKL cells = experiment: Transwell migration of murine SKL cells to rmSDF-1α; type: cell-based, mouse; settings: pulsed 2 hours, cultured 16 hours, migration 4 hours; vs vehicle
# Protocol: Freshly isolated Lineage^neg mouse bone marrow cells were pulsed with dmPGE2 or vehicle for 2 hours, washed and resuspended in media with 10% HI-FCS and cultured at 37° C. for 16 hours. After incubation, cells were washed, resuspended in RPMI/0.5% BSA and allowed to migrate in transwells to rmSDF-1α for 4 hours. Total cell migration was measured by flow cytometry. Referring now to FIG. 9, total SKL cell migration was higher for cells pulsed with dmPGE2. Data are the Mean±SEM percent migration for 3 experiments. ^†P<0.05 for dmPGE2 treated cells compared to cells treated with vehicle.
# [1] = test system: Survivin in CD34+ UCB cells; experiment: Intracellular Survivin by FACS, human CD34+ UCB cells; type: cell-based; settings: 24 hours post-pulse, vs control
# Text: All antibodies were purchased from BD Biosciences unless otherwise noted. For detection and sorting of murine KL and SKL cells, streptavidin conjugated with PE-Cy7 (to stain for biotinylated MACS lineage antibodies (Miltenyi Biotech, Auburn, Calif.)), c-kit-APC, Sca-1-PE or APC-Cy7, CD45. 1-PE and CD45.2-FITC were used. UCB CD34^+ cells were detected using anti-human-CD34-APC. For multilineage analysis, APC-Cy7-Mac-1, PE-Cy7-B-220 and APC-CD3 were used. EP receptors were detected with anti EP1, EP2, EP3 and EP4 rabbit IgG (Cayman Chemicals) and secondary staining with FITC-goat-anti-rabbit IgG (Southern Biotech, Birmingham, Ala.). CXCR4 expression was analyzed using streptavidin-PECy7, c-kit-APC, Sca-1-APC-Cy7, and CXCR4-PE. Apoptosis was measured with FITC-Annexin-V. For Survivin and active caspase-3 detection, cells were permeabilized and fixed using the CytoFix/CytoPerm kit (BD) and stained with anti-active-caspase-3-FITC Flow Kit (BD) or Survivin-PE (R&D Systems).
# Expression of EP receptors, CXCR4 and Survivin Replicate Lin^neg cell samples from CD45.2 mice were stained for SKL and each of the EP receptors and surface receptor expression on KL and SKL cells determined by FACS. […] Replicate cells were stained for CD34 and each of the EP receptors and surface expression determined by FACS. […]
Compound,migration of human CD34+ cells to SDF-1α (UCB CD34+ cells),donor (homed) SKL cells in S+G2/M phase (homed SKL cells),total SKL cell migration to rmSDF-1α (SKL cells),"increase in intracellular Survivin, CD34+ UCB cells [1]"
"CCCCC[C@H](O)/C=C/[C@H]1[C@H](O)CC(=O)[C@@H]1C/C=C\CCCC(=O)O [PGE2, Prostaglandin E2]",Increases Migration,~2 fold,–,–
"CCCCC(C)(C)[C@H](O)/C=C/[C@H]1[C@H](O)CC(=O)[C@@H]1C/C=C\CCCC(=O)O [dmPGE2, 16,16-dimethyl prostaglandin E2]",–,~2 fold,higher,2.4 fold
